This assay addresses T1, HDAC6 enzyme (Homo sapiens, UniProt Q9UBN7).
T1 construct: transducing full length HDAC6 gene into Sf-9 insect cells; GST; purchased SignalChem; host or cells: Sf-9 insect cells
T1 sequence (Q9UBN7 1-1215): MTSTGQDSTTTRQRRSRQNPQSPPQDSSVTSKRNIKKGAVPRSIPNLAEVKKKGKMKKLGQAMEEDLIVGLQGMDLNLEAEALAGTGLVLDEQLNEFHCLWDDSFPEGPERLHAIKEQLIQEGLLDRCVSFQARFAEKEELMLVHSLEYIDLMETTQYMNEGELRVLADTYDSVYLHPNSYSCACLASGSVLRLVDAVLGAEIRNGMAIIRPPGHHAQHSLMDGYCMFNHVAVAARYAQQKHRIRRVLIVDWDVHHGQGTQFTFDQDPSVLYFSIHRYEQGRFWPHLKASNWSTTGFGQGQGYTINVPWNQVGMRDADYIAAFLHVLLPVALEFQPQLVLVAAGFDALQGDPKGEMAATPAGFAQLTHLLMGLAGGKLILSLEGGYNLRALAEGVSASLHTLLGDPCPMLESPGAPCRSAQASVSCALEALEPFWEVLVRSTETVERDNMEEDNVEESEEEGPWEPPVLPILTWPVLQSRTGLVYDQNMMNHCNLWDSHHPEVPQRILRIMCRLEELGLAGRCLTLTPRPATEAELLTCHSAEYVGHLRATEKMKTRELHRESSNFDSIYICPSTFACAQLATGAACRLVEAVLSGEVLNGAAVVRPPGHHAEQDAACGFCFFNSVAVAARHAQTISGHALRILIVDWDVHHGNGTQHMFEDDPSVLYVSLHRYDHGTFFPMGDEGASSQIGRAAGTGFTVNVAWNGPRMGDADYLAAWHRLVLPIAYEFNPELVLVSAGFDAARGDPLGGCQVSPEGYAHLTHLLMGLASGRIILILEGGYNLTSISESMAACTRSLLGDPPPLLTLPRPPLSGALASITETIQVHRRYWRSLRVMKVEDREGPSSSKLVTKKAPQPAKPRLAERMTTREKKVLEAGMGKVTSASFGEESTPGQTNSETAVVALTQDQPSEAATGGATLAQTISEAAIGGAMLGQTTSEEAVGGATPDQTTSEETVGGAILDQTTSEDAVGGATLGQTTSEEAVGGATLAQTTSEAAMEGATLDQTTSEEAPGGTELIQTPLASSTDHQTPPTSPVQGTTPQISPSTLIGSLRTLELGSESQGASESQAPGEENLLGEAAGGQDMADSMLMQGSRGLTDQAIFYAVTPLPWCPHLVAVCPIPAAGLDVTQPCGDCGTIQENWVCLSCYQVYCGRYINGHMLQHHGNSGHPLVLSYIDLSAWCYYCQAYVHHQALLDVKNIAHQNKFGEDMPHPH
In words: HDAC6 enzyme inhibitory activity (HDAC-Glo I/II Assay kit). Type of assay: biochemical. To be noted: 10 μM; wells without enzyme = 100% inhibition; read-out: HDAC6 inhibitory rate (%) (10 μM). In outline:
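Inhibition is calculated as relative activity, taking luminescence in enzyme-free wells as complete inhibition. The enzyme, full-length and GST-purified after Sf-9 expression, was exposed to compound for 60 min at room temperature before a 20 min HDAC-Glo reaction.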
As for `O=C1c2cc(-c3nnc(C(F)F)o3)ccc2CN1[C@@H]1CCCC[C@H]1NC(=O)C1(c2ccccc2)CCC1` [Example 89, N-((1R,2R)-2-(6-(5-(difluoromethyl)-1,3,4-oxadiazol-2-yl)-1-oxo-1,3-dihydro-2H-isoindol-2-yl)cyclohexyl)-1-phenylcyclobutanecarboxamide], the inhibition at 10 µM turned out to be 100%.
As to `O=C1c2cc(-c3nnc(C(F)F)o3)ccc2CN1[C@@H]1CCCC[C@H]1NC(=O)C1(c2ccccc2)COC1` [Example 90, N-((1R,2R)-2-(6-(5-(difluoromethyl)-1,3,4-oxadiazol-2-yl)-1-oxo-1,3-dihydro-2H-isoindol-2-yl)cyclohexyl)-3-phenyloxetane-3-carboxamide], the inhibition at 10 µM came out at 100%.
In the case of `O=C(N[C@@H]1CCCC[C@H]1N1Cc2ccc(-c3nnc(C(F)F)o3)cc2C1=O)C1COC1` [Example 91, N-((1R,2R)-2-(6-(5-(difluoromethyl)-1,3,4-oxadiazol-2-yl)-1-oxo-1,3-dihydro-2H-isoindol-2-yl)cyclohexyl)oxetane-3-carboxamide] it was 100%.
In the case of `CCC1(C(=O)N[C@@H]2CCCC[C@H]2N2Cc3ccc(-c4nnc(C(F)F)o4)cc3C2=O)COC1` [Example 92, N-((1R,2R)-2-(6-(5-(difluoromethyl)-1,3,4-oxadiazol-2-yl)-1-oxo-1,3-dihydro-2H-isoindol-2-yl)cyclohexyl)-3-ethyloxetane-3-carboxamide], the inhibition at 10 µM was 101%.
`O=C(N[C@@H]1CCCC[C@H]1N1Cc2ccc(-c3nnc(C(F)F)o3)cc2C1=O)[C@@H]1CCCO1` [Example 93, (2S)-N-((1R,2R)-2-(6-(5-(difluoromethyl)-1,3,4-oxadiazol-2-yl)-1-oxo-1,3-dihydro-2H-isoindol-2-yl)cyclohexyl)tetrahydrofuran-2-carboxamide]: the inhibition at 10 µM came to 100%.
Take `O=C(N[C@@H]1CCCC[C@H]1N1Cc2ccc(-c3nnc(C(F)F)o3)cc2C1=O)[C@@H]1CCOC1` [Example 94]: the inhibition at 10 µM amounted to 100%.
In the case of `O=C(N[C@@H]1CCCC[C@H]1N1Cc2ccc(-c3nnc(C(F)F)o3)cc2C1=O)C1CCOCC1` [Example 95, N-((1R,2R)-2-(6-(5-(difluoromethyl)-1,3,4-oxadiazol-2-yl)-1-oxo-1,3-dihydro-2H-isoindol-2-yl)cyclohexyl)tetrahydro-2H-pyran-4-carboxamide] it was 96%; in that of `Cn1cncc1C(=O)N[C@@H]1CCCC[C@H]1N1Cc2ccc(-c3nnc(C(F)F)o3)cc2C1=O` [Example 96, N-((1R,2R)-2-(6-(5-(difluoromethyl)-1,3,4-oxadiazol-2-yl)-1-oxo-1,3-dihydro-2H-isoindol-2-yl)cyclohexyl)-1-methyl-1H-imidazole-5-carboxamide], 98%; in that of `Cn1cc(C(=O)N[C@@H]2CCCC[C@H]2N2Cc3ccc(-c4nnc(C(F)F)o4)cc3C2=O)cn1` [Example 97, N-((1R,2R)-2-(6-(5-(difluoromethyl)-1,3,4-oxadiazol-2-yl)-1-oxo-1,3-dihydro-2H-isoindol-2-yl)cyclohexyl)-1-methyl-1H-pyrazole-4-carboxamide], 100%.
In the case of `O=C(N[C@@H]1CCCC[C@H]1N1Cc2ccc(-c3nnc(C(F)F)o3)cc2C1=O)c1ccccc1` [Example 98, N-((1R,2R)-2-(6-(5-(difluoromethyl)-1,3,4-oxadiazol-2-yl)-1-oxo-1,3-dihydro-2H-isoindol-2-yl)cyclohexyl)benzamide], the inhibition at 10 µM worked out at 101%.
With `O=C(N[C@@H]1CCCC[C@H]1N1Cc2ccc(-c3nnc(C(F)F)o3)cc2C1=O)c1ccccc1Cl` [Example 99, 2-chloro-N-((1R,2R)-2-(6-(5-(difluoromethyl)-1,3,4-oxadiazol-2-yl)-1-oxo-1,3-dihydro-2H-isoindol-2-yl)cyclohexyl)benzamide], the inhibition at 10 µM is 100%.
As for `O=C(N[C@@H]1CCCC[C@H]1N1Cc2ccc(-c3nnc(C(F)F)o3)cc2C1=O)c1cccc(Cl)c1` [Example 100, 3-chloro-N-((1R,2R)-2-(6-(5-(difluoromethyl)-1,3,4-oxadiazol-2-yl)-1-oxo-1,3-dihydro-2H-isoindol-2-yl)cyclohexyl)benzamide], the inhibition at 10 µM came out at 100%.
Consider `O=C(N[C@@H]1CCCC[C@H]1N1Cc2ccc(-c3nnc(C(F)F)o3)cc2C1=O)c1ccc(Cl)cc1` [Example 101, 4-chloro-N-((1R,2R)-2-(6-(5-(difluoromethyl)-1,3,4-oxadiazol-2-yl)-1-oxo-1,3-dihydro-2H-isoindol-2-yl)cyclohexyl)benzamide], for which the inhibition at 10 µM was found to be 99%.
With `O=C(N[C@@H]1CCCC[C@H]1N1Cc2ccc(-c3nnc(C(F)F)o3)cc2C1=O)C1CCC(F)(F)CC1` [Example 102, N-((1R,2R)-2-(6-(5-(difluoromethyl)-1,3,4-oxadiazol-2-yl)-1-oxo-1,3-dihydro-2H-isoindol-2-yl)cyclohexyl)-4,4-difluorocyclohexanecarboxamide] the figure was 96%; with `C[C@](O)(C(=O)N[C@@H]1CCCC[C@H]1N1Cc2ccc(-c3nnc(C(F)F)o3)cc2C1=O)C(F)(F)F` [Example 103, (2S)-N-((1R,2R)-2-(6-(5-(difluoromethyl)-1,3,4-oxadiazol-2-yl)-1-oxo-1,3-dihydro-2H-isoindol-2-yl)cyclohexyl)-3,3,3-trifluoro-2-hydroxy-2-methylpropanamide], 98%; with `C[C@@](O)(C(=O)N[C@@H]1CCCC[C@H]1N1Cc2ccc(-c3nnc(C(F)F)o3)cc2C1=O)C(F)(F)F` [Example 104, (2R)-N-((1R,2R)-2-(6-(5-(difluoromethyl)-1,3,4-oxadiazol-2-yl)-1-oxo-1,3-dihydro-2H-isoindol-2-yl)cyclohexyl)-3,3,3-trifluoro-2-hydroxy-2-methylpropanamide], 97%.
In the case of `O=C(N[C@@H]1CCCC[C@H]1N1Cc2ccc(-c3nnc(C(F)F)o3)cc2C1=O)c1ccccn1` [Example 105, N-((1R,2R)-2-(6-(5-(difluoromethyl)-1,3,4-oxadiazol-2-yl)-1-oxo-1,3-dihydro-2H-isoindol-2-yl)cyclohexyl)pyridine-2-carboxamide] it was 98%.
Take `CC(C)(F)C(=O)N[C@@H]1CCCC[C@H]1N1Cc2ccc(-c3nnc(C(F)F)o3)cc2C1=O` [Example 106, N-((1R,2R)-2-(6-(5-(difluoromethyl)-1,3,4-oxadiazol-2-yl)-1-oxo-1,3-dihydro-2H-isoindol-2-yl)cyclohexyl)-2-fluoro-2-methylpropanamide]: the inhibition at 10 µM turned out to be 99%.
With `CCCCCCC(=O)N[C@@H]1CCCC[C@H]1N1Cc2ccc(-c3nnc(C(F)F)o3)cc2C1=O` [Example 107, N-((1R,2R)-2-(6-(5-(difluoromethyl)-1,3,4-oxadiazol-2-yl)-1-oxo-1,3-dihydro-2H-isoindol-2-yl)cyclohexyl)heptanamide] the figure was 102%; with `O=C1c2cc(-c3nnc(C(F)F)o3)ccc2CN1[C@@H]1CCCC[C@H]1NC(=O)C1(c2ccc(F)cc2)CC1` [Example 108, N-((1R,2R)-2-(6-(5-(difluoromethyl)-1,3,4-oxadiazol-2-yl)-1-oxo-1,3-dihydro-2H-isoindol-2-yl)cyclohexyl)-1-(4-fluorophenyl)cyclopropanecarboxamide], 100%.

These data come from patent US10435399B2, “HDAC6 inhibitory heterocyclic compound” (TAKEDA PHARMACEUTICAL COMPANY LIMITED, priority 2017, dated 2019).
